Counter-ions that a name gives are not always drawn. Like-named read-outs stand apart in the source and are kept apart here.
How the values were obtained:
[1] = Toxicity on nucleated cells, human thymocytes; assay type: cell-based; conditions: 1 hour 30, trypan blue, read-out: LD 50 (concentration leading to a mortality of 50%)
Description: (§1) B.2: Study of the toxicity on nucleated cells
(§2) The solutions of the amphotericine B derivatives are prepared similarly to those mentioned in paragraph B.1.
(§3) The cells are prepared by placing 20 ml of blood diluted to 1/2 with 0.9% NaCl into a tube together with 10 ml of Ficoll-hypaque, and the mixture is centrifuged at 2000 rpm for 30 minutes. The cell nuclei are recovered and washed twice with PBS buffer containing 5% of foetal calf serum.
(§4) The cells are prepared by suspending 1.14×10^6 cells/ml in RPMI 1640 containing 2.5% of foetal calf serum and by filling each well with 150 μl. 50 μl of each dilution of the derivatives are added and also one control (5% glucose solution).
(§5) The cells are then incubated in a steam cabinet at a CO2 concentration of 5% for 1 hour 30 at 37° C. or at ambient temperature.
(§6) To evaluate the toxicity of the derivatives, a cell count in the presence of trypan blue is made, and the LD 50 (concentration of the derivative leading to a mortality of 50%) is calculated with respect to the control (5% glucose solution) for each concentration of each derivative.

[2] = Toxicity on nucleated cells, mice B lymph gland cells; assay type: cell-based; conditions: mouse, 1 hour 30, trypan blue, read-out: LD 50 (concentration leading to a mortality of 50%)
Description: as §1, §2, §3, §4, §5, §6

[3] = Toxicity on nucleated cells, mice T lymph gland cells; assay type: cell-based; conditions: mouse, 1 hour 30, trypan blue, read-out: LD 50 (concentration leading to a mortality of 50%)
Description: as §1, §2, §3, §4, §5, §6

[4] = Toxicity on red corpuscles (lysis), human; assay type: cell-based; conditions: human, red corpuscles, 37° C., 1 hour 30, read-out: LD 50 (dose which leads to lysis in 50% of the erythrocytes)
Description: (§7) B.1: Study of the toxicity on red corpuscles
(§8) All the solutions of the AmB derivatives according to the invention were prepared immediately before use by diluting 4 mg of substance in 100 μl of 5% glucose solution, and then, after 15 minutes protected from light, 100 μl of sterile distilled water are added, and the mixture is made up to stock solutions of 4 mg/ml with a 5% glucose solution. For comparative study of the effects of AmB, 4 mg of FUNGIZONE are diluted with 1 ml of 5% glucose.
(§9) The cells are prepared by placing 1 ml of a peripheral blood sample into a tube together with Ficollhypaque to remove the lymphocytes, and then centrifuging the mixture at 2000 rpm for 20 minutes. The remaining red corpuscles are recovered, washed once with 0.9% NaCl and then twice with 150 Mm KCl, 0.5 Mm tris-HCl, pH 7.4.
(§10) A 1.25% suspension is then prepared with 150 mM KCl solution, 0.5 mM tris-HCl, pH 7.4, and 150 μl thereof are distributed in wells along with 50 μl of each of the dilutions of the derivatives, plus a control well (5% glucose solution).
(§11) The cells are then incubated at 37° C. in a steam cabinet for 1 hour 30.
(§12) To evaluate the cell lysis, haemoglobin is essayed by removing 100 μl of the supernatant in each well and diluting the sample with 1 ml of distilled water.
(§13) The haemoglobin concentration is calculated by measuring the optical density at 540 nm and taking into account the absorption of the derivatives of amphotericine B.
(§14) LD 50 is the dose which leads to lysis in 50% of the erythrocytes (a control of 100% lysis is obtained with distilled water, and reference lysis of 0% is obtained with the 5% glucose solution).

Aspergillus fumigatus = test: Diffusion method in agar-agar medium (Sabouraud agar-agar); assay type: cell-based
Description: (§15) A.2 : Study of the antibiotic efficiency of amphotericine B derivatives in agar-agar medium against Aspergillus
(§16) The antibiotic activity was tested by the diffusion method in agar-agar medium (Sabouraud agar-agar).
(§17) The efficiency of each molecule was determined by the size of the growth-inhibiting zone around a WHATMAN 3M paper disc impregnated with the antibiotic substance of a given concentration.
(§18) A suspension of Aspergillus spores in a broth was prepared, 0.2 ml of this suspension was used to inoculate at its surface an agar-agar medium which was solidified in such a manner that a homogeneous growth layer was obtained. After spreading, the WHATMAN 3M paper discs (diameter: 1 cm) were placed on the surface of the agar-agar, and then impregnated with 0.1 ml of the antibiotic substance at different concentrations.

Aspergillus flavus = test: as above; assay type: cell-based; conditions: Aspergillus flavus, read-out: concentration giving a growth inhibition of 1 cm around a disc in solid medium
Description: as §15, §16, §17, §18

[5] = Toxicity on nucleated cells, mice thymocytes; assay type: cell-based; conditions: mouse, thymocytes, 1 hour 30, trypan blue, read-out: LD 50 (concentration leading to a mortality of 50%)
[6] = Toxicity on nucleated cells, human bone marrow; assay type: cell-based; conditions: 1 hour 30, trypan blue, read-out: LD 50 (concentration leading to a mortality of 50%)
Description: as §1, §2, §3, §4, §5, §6

PBL = test: Toxicity on nucleated cells, human PBL; assay type: cell-based; conditions: human PBL, 1 hour 30, trypan blue; 90 min; read-out: LD 50 (concentration leading to a mortality of 50%)
Description: as §1, §2, §3, §4, §5, §6

X 63 (mice lymphoma B) = test: Toxicity on nucleated cells, X 63 mice lymphoma B; assay type: cell-based; conditions: 1 hour 30, trypan blue, 90 min, read-out: LD 50 (concentration leading to a mortality of 50%)
[7] = Toxicity on nucleated cells, DAUDI human lymphoma B; assay type: cell-based; conditions: human, daudi lymphoma b cells, 1 hour 30, trypan blue, read-out: LD 50 (concentration leading to a mortality of 50%)
red corpuscles = test: Toxicity on red corpuscles (lysis), mice; assay type: cell-based; conditions: 37° C., 1 hour 30, 90 min, 90 min, read-out: LD 50 (dose which leads to lysis in 50% of the erythrocytes)
Description: as §7, §8, §9, §10, §11, §12, §13, §14

Cryptoccocus neoformans = test: Growth inhibition in liquid medium (Sabouraud broth); assay type: cell-based; conditions: read-out: IC 50 (growth-inhibiting concentration of 50%)
Description: (§19) A.1 : Study of the antibiotic efficiency of AmB derivatives in liquid medium against different yeasts
(§20) The antibiotic efficiency was tested by the growth inhibition method in liquid medium (Sabouraud broth) in the presence of different concentrations of the derivatives studied.
(§21) A yeast suspension was cultivated in a broth in such a manner that about 1×10^2 cell/ml were obtained.
(§22) The tubes containing the different concentrations of antifungal substance were inoculated with the same amount of yeast cells, and were then incubated at 28° C. for 18 hours with stirring. For each concentration of antifungal substance, two identical tubes were prepared.
(§23) The inhibition of fungal growth corresponding to the different concentrations was evaluated for each molecule by spectrophotometry at 620 nm and expressed in percent with respect to a reference solution without antifungal substance.

Pytirosporum orbiculare = test: as above; assay type: cell-based; conditions: read-out: IC 50 (growth-inhibiting concentration of 50%)
Description: as §19, §20, §21, §22, §23

Candida albicans = test: as above; assay type: cell-based; conditions: read-out: IC 50 (growth-inhibiting concentration of 50%)
Description: as §19, §20, §21, §22, §23

Saccharomyces cerevisiae = test: as above; assay type: cell-based; conditions: Saccharomyces cerevisiae, 18 h, read-out: IC 50 (growth-inhibiting concentration of 50%)
Description: as §19, §20, §21, §22, §23

[8] = Solubility of the AmB derivatives; assay type: physicochemical; conditions: 5% glucose solution, ambient temperature
Description: C.2. Solubility of the AmB derivatives according to the present invention
AmB or the derivatives obtained are dissolved at ambient temperature in a 5% glucose solution up to saturation.

[9] = background; cited from earlier work
Candida albicans B 2630 = test: Growth inhibition in liquid medium (Sabouraud broth); assay type: cell-based; conditions: B2630, 18 h, read-out: IC 50 (growth-inhibiting concentration of 50%)
Description: as §19, §20, §21, §22, §23

[10] = Toxicity on nucleated cells, human PBL; assay type: cell-based; conditions: human, pbl, human PBLs; AmB 12 derivative, comparison of different catalysts (Table 4); read-out: LD 50
Description: as §1, §2, §3, §4, §5, §6

[11] = Sabouraud agar-agar, disc diameter 1 cm, 0.1 ml
[12] = Sabouraud broth, 28° C., 18 hours

CC1OC[C@@H](O)[C@H]([C@H](O)C(=O)CN[C@@H]2[C@H](O)[C@H](O[C@H]3/C=C/C=C/C=C/C=C/C=C/C=C/C=C/[C@H](C)[C@@H](O)[C@@H](C)[C@H](C)OC(=O)C[C@H](O)C[C@H](O)CC[C@@H](O)[C@H](O)C[C@H](O)C[C@]4(O)C[C@H](O)[C@@H](C(=O)O)[C@H](C3)O4)O[C@H](C)[C@H]2O)O1 (stereo partly drawn) [AmB 22 F, 1-deoxy-1-amino-4,6-O-ethylidene-D-fructosyl-AmB]
CC50 at 1.5 h [1]: > 300 µM
CC50 at 1.5 h [2]: 20 µM
CC50 at 1.5 h [3]: 20 µM
HC50 at 1.5 h [4]: 100 µM
concentration giving a growth inhibition of 1 cm around a disc in solid medium (Aspergillus fumigatus; [11]): 5 × 10^-4 molarity
IC (1 cm inhibition zone) (Aspergillus flavus; [11]): 150 µM
CC50 at 1.5 h [5]: 3.5 µM
CC50 at 1.5 h [6]: 1000 µM
CC50 (PBL): > 1000 µM
CC50 (X 63 (mice lymphoma B)): > 1000 µM
CC50 at 1.5 h [7]: > 1000 µM
HC50 (red corpuscles): 90 µM
IC50 (Cryptoccocus neoformans; [12]): 0.25 µM
IC50 (Pytirosporum orbiculare; [12]): 0.18 µM
IC50 (Candida albicans; [12]): 0.56 µM
IC50 (Saccharomyces cerevisiae; [12]): 1.6 µM

C[C@@H]1[C@H](O)[C@@H](C)/C=C/C=C/C=C/C=C/C=C/C=C/C=C/[C@H](O[C@@H]2O[C@H](C)[C@@H](O)[C@H](N)[C@@H]2O)C[C@@H]2O[C@](O)(C[C@@H](O)C[C@@H](O)[C@H](O)CC[C@@H](O)C[C@@H](O)CC(=O)O[C@H]1C)C[C@H](O)[C@H]2C(=O)O [AmB, amphotericine B, reference compound]
IC (1 cm inhibition zone) (Aspergillus fumigatus; Aspergillus fumigatus, read-out: concentration giving a growth inhibition of 1 cm around a disc in solid medium): 50 µM
IC (1 cm inhibition zone) (Aspergillus flavus): 50 µM
solubility (in words) [8]: insoluble
solubility in water (in words) [9]: sparingly soluble in water
IC50 (Cryptoccocus neoformans; 18 h): 0.08 µM
IC50 (Candida albicans B 2630): 0.35 µM
IC50 (Pytirosporum orbiculare; 18 h): < 0.01 µM
IC50 (Candida albicans; Candida albicans, 18 h): 0.08 µM
IC50 (Saccharomyces cerevisiae): 0.54 µM

C[C@@H]1[C@H](O)[C@@H](C)/C=C/C=C/C=C/C=C/C=C/C=C/C=C/[C@H](O[C@@H]2O[C@H](C)[C@@H](O)[C@H](NC3O[C@H](C(N)=O)[C@@H](O)[C@H](O)[C@H]3O)[C@@H]2O)C[C@@H]2O[C@](O)(C[C@@H](O)C[C@@H](O)[C@H](O)CC[C@@H](O)C[C@@H](O)CC(=O)O[C@H]1C)C[C@H](O)[C@H]2C(=O)O (some centres unmarked) [Uncatalyzed NMG salt, reference compound]
CC50 at 1.5 h [10]: 80 µM
